Laboratory results from patent US20030232986A1, “Inhibitors of caspases” (Vertex Pharmaceuticals Incorporated, priority 1998, published 2003).
Where two headings read alike, the source gives them in different places.

Tests used:
[1] = Single pass perfusion in rat: GI wall and liver metabolism, biliary excretion; format: in vitro ADME; conditions: for f (g) Xf (h): GI wall metabolism f(g) x liver metabolism f(h)
Experimental: Single pass perfusion studies in rat were performed to assess gastrointestinal (GI) wall metabolism (f(g)), liver metabolism (f(h)), and biliary excretion. The method used has been described in Pang, C. S., J. Pharmacol. Exp. Therapeutics, 333, pp. 788-798 (1984).

[2] = system: Human whole blood, IL-1β production; assay: Whole blood assay for IL-1β production; format: cell-based; conditions: LPS-stimulated whole blood, IL-1β by ELISA
Summary of the method: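 LPS-stimulated (5.0 ng/ml final) human whole blood incubated with test compound in saline (or plasma/PBS-5% DMSO for hydrophobic compounds) at 30° C for 16-18 hr. Plasma IL-1β then measured by ELISA at 1:200 dilution, against no-LPS, no-inhibitor and vehicle controls.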

[3] = molecular target: T1, Caspase-1 (Homo sapiens, UniProt P29466); assay: Caspase-1 enzyme inhibition (Ki); format: biochemical
T1 sequence (P29466 120-297 limits assumed): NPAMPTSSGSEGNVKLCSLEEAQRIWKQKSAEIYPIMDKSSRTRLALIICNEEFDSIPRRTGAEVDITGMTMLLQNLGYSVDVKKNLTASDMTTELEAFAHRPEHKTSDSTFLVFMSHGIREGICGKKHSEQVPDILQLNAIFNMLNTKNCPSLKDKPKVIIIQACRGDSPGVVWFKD
T1 sequence (P29466 317-404 limits assumed): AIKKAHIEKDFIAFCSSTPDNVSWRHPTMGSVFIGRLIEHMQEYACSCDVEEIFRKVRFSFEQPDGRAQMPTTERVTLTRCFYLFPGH
Summary of the method: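 Ki obtained by fitting rate versus inhibitor concentration to the Morrison tight-binding equation for competitive inhibitors, with pNA release read at 405 nm at 37 °C. Substrate Suc-YVAD-pNA (80 μM final) added after 15 min enzyme–inhibitor preincubation in Tris pH 7.5 buffer with DTT and CHAPS.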

[4] = system: Human Peripheral Blood Mononuclear Cells (PBMC), mature IL-1β; assay: PBMC cell assay: IL-1β assay with human peripheral blood mononuclear cells; format: cell-based; conditions: LPS-stimulated human PBMC, mature IL-1β in supernatant by ELISA
Summary of the method: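 Donor PBMC (suspension at 6×10^6 cells/ml) or adherent-enriched monocytes were stimulated with 5 ng/ml LPS (final) alongside 5–6 compound dilutions bracketing the ICE Ki, at 0.1% DMSO final, for 16–18 hr at 37° C, 5% CO2. Mature IL-1β in supernatants was measured by ELISA; IC50 was calculated relative to LPS-only controls.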

[5] = substrate Suc-YVAD-pNA 80 μM, 37° C., pH 7.5

| SMILES | Biliary Excretion [1] | f (g) Xf (h) [1] | IC50 [2] [nM] | Ki [3, 5] [nM] | IC50 [4] [nM] | Ki [3] [nM] |
| --- | --- | --- | --- | --- | --- | --- |
| C[C@H](NC(=O)c1ccc(N)c(Cl)c1)C(=O)N[C@@H](C)C(=O)N[C@H](C=O)CC(=O)O [Example 29q] | A (category “A” indicates <5%) | C (Category “C” indicates 0.5-0.75) | < 2500 | < 10 | – | – |
| COc1c(C)cc(C(=O)N[C@@H](C)C(=O)N[C@@H](C)C(=O)N[C@H](C=O)CC(=O)O)cc1C [Example 29o] | A (category “A” indicates <5%) | C (Category “C” indicates 0.5-0.75) | < 2500 | 10 to 1000 | – | – |
| COc1c(C)cc(C(=O)N[C@H](C(=O)N[C@@H](C)C(=O)N[C@H](C=O)CC(=O)O)C(C)C)cc1C [Example 29p] | C (Category “C” indicates >10%) | B (Category “B” indicates 0.25-0.49) | < 2500 | < 10 | – | – |
| CC(=O)Nc1ccc(C(=O)N[C@@H](C)C(=O)N2CCCC[C@H]2C(=O)N[C@H](C=O)CC(=O)O)cc1Cl [Example 25e] | B (Category “B” indicates 5-10%) | C (Category “C” indicates 0.5-0.75) | > 7500 | < 10 | – | – |
| COc1cc(NC(C)=O)c(Cl)cc1C(=O)N[C@@H](C)C(=O)N1CCC[C@H]1C(=O)N[C@H](C=O)CC(=O)O [Example 122r, 3-({1-[2-(4-Acetylamino-5-chloro-2-methoxy-benzoylamino)-propionyl]-pyrrolidine-2-carbonyl}-amino)-4-oxo-butyric acid] | A (category “A” indicates <5%) | B (Category “B” indicates 0.25-0.49) | 2500 to 7500 | 10 to 1000 | – | – |
| COc1cc(N)c(Cl)cc1C(=O)N[C@@H](C)C(=O)N1CC(F)(F)C[C@H]1C(=O)N[C@H](C=O)CC(=O)O [Example 27b] | A (category “A” indicates <5%) | B (Category “B” indicates 0.25-0.49) | < 2500 | 10 to 1000 | – | – |
| CC(C)[C@H](NC(=O)c1ccccc1C(=O)c1ccc(F)cc1)C(=O)N1CCC[C@H]1C(=O)N[C@H](C=O)CC(=O)O [Example 5l] | – | – | > 7500 | 10 to 1000 | < 500 | 10 to 1000 |
| COC1CC(C(=O)NC(C=O)CC(=O)O)N(C(=O)C(C)NC(=O)c2ccc(N)c(Cl)c2)C1 (stereo not shown) [Example 23i, 3-({1-[2-(4-amino-3-chloro-benzoylamino)-propionyl]-4-methoxy-pyrrolidine-2-carbonyl}-amino)-4-oxo-butyric acid] | – | – | 2500 to 7500 | 10 to 1000 | < 500 | – |
| COc1ccc(C(=O)N[C@H](C(=O)N[C@@H](C)C(=O)N[C@H](C=O)CC(=O)O)C(C)C)cc1 [Example 29n] | A (category “A” indicates <5%) | C (Category “C” indicates 0.5-0.75) | 2500 to 7500 | 10 to 1000 | – | – |
| COc1ccc(C(=O)N[C@H](C(=O)N2C3CCCCC3C[C@H]2C(=O)N[C@H](C=O)CC(=O)O)C(C)C)cc1 (stereo partly shown) [Example 26d] | – | – | < 2500 | < 10 | 500 to 1000 | – |
| C[C@H](NC(=O)c1ccc(N)c(Cl)c1)C(=O)N1CCCC[C@H]1C(=O)N[C@H](C=O)CC(=O)O [Example 25d] | C (Category “C” indicates >10%) | C (Category “C” indicates 0.5-0.75) | < 2500 | < 10 | – | – |
| CCC(C)[C@H](NC(=O)c1ccc(N)c(Cl)c1)C(=O)N1CCC[C@H]1C(=O)N[C@H](C=O)CC(=O)O (stereo partly shown) [Example 20q] | – | – | > 7500 | 10 to 1000 | 500 to 1000 | – |
| CC(C)[C@H](NC(=O)c1cccc2ccccc12)C(=O)N1CCC[C@H]1C(=O)N[C@H](C=O)CC(=O)O [Example 5d] | – | – | 2500 to 7500 | < 10 | 500 to 1000 | – |
| C[C@H](NC(=O)c1ccc2c(c1)OCO2)C(=O)N1CCC[C@H]1C(=O)N[C@H](C=O)CC(=O)O [Example 7q] | – | – | < 2500 | 10 to 1000 | > 2000 | – |
| CC(C)[C@H](NC(=O)c1ccc(N)c(Cl)c1)C(=O)N[C@@H](C)C(=O)N[C@H](C=O)CC(=O)O [Example 29r] | B (Category “B” indicates 5-10%) | C (Category “C” indicates 0.5-0.75) | < 2500 | < 10 | – | – |
| COc1cc(N)c(Cl)cc1C(=O)N[C@@H](C)C(=O)N1CCC[C@H]1C(=O)N[C@H](C=O)CC(=O)O [Example 7ac] | C (Category “C” indicates >10%) | C (Category “C” indicates 0.5-0.75) | 2500 to 7500 | 10 to 1000 | – | – |

| SMILES | Biliary Excretion [1] | f (g) Xf (h) [1] | IC50 [2] [nM] | Ki [3, 5] [nM] | IC50 [4] [nM] | Ki [3] [nM] |
| --- | --- | --- | --- | --- | --- | --- |
| CC(C)(C)[C@H](NC(=O)c1nccc2ccccc12)C(=O)N1CCCC[C@H]1C(=O)N[C@H](C=O)CC(=O)O [Example 25c] | – | – | 2500 to 7500 | < 10 | 500 to 1000 | – |
| COc1ccc(C(=O)N[C@@H](C)C(=O)N2CCC[C@H]2C(=O)N[C@H](C=O)CC(=O)O)cc1F [Example 7m] | – | – | 2500 to 7500 | 10 to 1000 | 500 to 1000 | – |
| CC(C)[C@H](NC(=O)c1ccccc1C(=O)N[C@@H](C)c1ccccc1)C(=O)N1CCC[C@H]1C(=O)N[C@H](C=O)CC(=O)O [Example 5x] | – | – | < 2500 | < 10 | 500 to 1000 | < 10 |
| CC(C)[C@H](NC(=O)c1ccccc1C(=O)c1ccccc1)C(=O)N1CCC[C@H]1C(=O)N[C@H](C=O)CC(=O)O [Example 5u] | – | – | < 2500 | 10 to 1000 | 1000 to 2000 | 10 to 1000 |
| CC(C)[C@H](NC(=O)c1nccc2ccccc12)C(=O)N1C[C@H](NS(C)(=O)=O)C[C@H]1C(=O)N[C@H](C=O)CC(=O)O [Example 9d] | – | – | < 2500 | < 10 | 500 to 1000 | – |
| C[C@H](NC(=O)c1ccc(NS(C)(=O)=O)cc1)C(=O)N1CCC[C@H]1C(=O)N[C@H](C=O)CC(=O)O [Example 7x] | – | – | > 7500 | 10 to 1000 | > 2000 | – |
| CC(C)S(=O)(=O)N1CCN(C(=O)[C@H](C)NC(=O)c2nccc3ccccc23)[C@H](C(=O)N[C@H](C=O)CC(=O)O)C1 [Example 18b] | – | – | < 2500 | < 10 | 500 to 1000 | – |
| CC(C)C(NC(=O)c1ccc(N)c(Cl)c1)C(=O)N1CCCC1C(=O)NC(C=O)CC(=O)O (stereo not shown) [Example 61, 3-((1-[2-(4-Amino-3-chloro-benzoylamino)-3-methyl-butyryl]-pyrrolidine-2-carbonyl}-amino)-4-oxo-butyric acid] | – | – | < 2500 | < 10 | 500 to 1000 | – |
| CC(NC(=O)c1ccc(N)c(Cl)c1)C(=O)N1N=CC(C)C1C(=O)NC(C=O)CC(=O)O (stereo not shown) [Example 23g, 3-({2-[2-(4-Amino-3-chloro-benzoylamino)-propionyl]-4-methyl-3,4-dihydro-2H-pyrazole-3-carbonyl}-amino)-4-oxo-butyric acid] | – | – | < 2500 | < 10 | 1000 to 2000 | – |
| Cc1cc(C(=O)N[C@@H](C)C(=O)N2CCC[C@H]2C(=O)N[C@H](C=O)CC(=O)O)ccc1N [Example 7t] | – | – | 2500 to 7500 | 10 to 1000 | > 2000 | – |
| CC(C)(C)[C@H](NC(=O)c1cccc2ccccc12)C(=O)N1CCC[C@H]1C(=O)N[C@H](C=O)CC(=O)O [Example 20b] | – | – | > 7500 | < 10 | 500 to 1000 | – |
| CC(C)[C@H](NC(=O)c1cccc(C(=O)c2ccccc2)c1)C(=O)N1CCC[C@H]1C(=O)N[C@H](C=O)CC(=O)O [Example 5az] | – | – | < 2500 | < 10 | 500 to 1000 | – |
| COc1cc(C(=O)N[C@@H](C)C(=O)N2CCC[C@H]2C(=O)N[C@H](C=O)CC(=O)O)cc(OC)c1OC [Example 7k] | – | – | < 2500 | 10 to 1000 | 500 to 1000 | – |
| C[C@H](NC(=O)[C@@H](NC(=O)c1cc2ccccc2[nH]1)C(C)(C)C)C(=O)N[C@H](C=O)CC(=O)O [Example 29j] | – | – | < 2500 | < 10 | 500 to 1000 | – |
| C[C@H](NC(=O)c1nccc2ccccc12)C(=O)N1CCN(C(N)=O)C[C@H]1C(=O)N[C@H](C=O)CC(=O)O [Example 18c] | – | – | < 2500 | 10 to 1000 | 500 to 1000 | – |
| C[C@H](NC(=O)c1ccc(N)c(Cl)c1)C(=O)N1CCNC[C@H]1C(=O)N[C@H](C=O)CC(=O)O [Example 16b] | – | – | < 2500 | < 10 | 1000 to 2000 | – |
